Measurements reported in PubChem BioAssay (NCI).
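Following 48 hours of exposure in 96-well plates, responses at five concentrations were used to interpolate endpoints linearly. TGI marks complete inhibition of growth.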

Key:
Assay in all cases: DTP human tumour cell line panel, 48 h
[1] = tested on: 786-0 renal
[2] = tested on: A549 NSCLC
[3] = tested on: ACHN renal
[4] = tested on: CAKI-1 renal
[5] = tested on: CCRF-CEM leukemia
[6] = tested on: COLO 205 colon
[7] = tested on: DU-145 prostate
[8] = tested on: EKVX NSCLC
[9] = tested on: HCC-2998 colon
[10] = tested on: HCT-116 colon
[11] = tested on: HCT-15 colon
[12] = tested on: HL-60(TB) leukemia
[13] = tested on: HOP-62 NSCLC
[14] = tested on: HOP-92 NSCLC
[15] = tested on: HS 578T breast
[16] = tested on: HT29 colon
[17] = tested on: IGROV1 ovarian
[18] = tested on: K-562 leukemia
[19] = tested on: KM12 colon
[20] = tested on: LOX IMVI melanoma
[21] = tested on: M14 melanoma
[22] = tested on: MALME-3M melanoma
[23] = tested on: MCF7 breast
[24] = tested on: MDA-MB-231 breast
[25] = tested on: MDA-MB-435
[26] = tested on: MDA-N
[27] = tested on: MOLT-4 leukemia
[28] = tested on: NCI-H226 lung
[29] = tested on: NCI-H23 lung
[30] = tested on: NCI-H460 lung
[31] = tested on: NCI/ADR-RES ovarian
[32] = tested on: OVCAR-3 ovarian
[33] = tested on: OVCAR-4 ovarian
[34] = tested on: OVCAR-5 ovarian
[35] = tested on: OVCAR-8 ovarian
[36] = tested on: PC-3 prostate
[37] = tested on: RPMI-8226 leukemia
[38] = tested on: RXF 393 renal
[39] = tested on: SF-268 CNS
[40] = tested on: SF-295 CNS
[41] = tested on: SF-539 CNS
[42] = tested on: SK-MEL-2 melanoma
[43] = tested on: SK-MEL-28 melanoma
[44] = tested on: SK-MEL-5 melanoma
[45] = tested on: SK-OV-3 ovarian
[46] = tested on: SN12C renal
[47] = tested on: SNB-19 CNS
[48] = tested on: SNB-75 CNS
[49] = tested on: SR leukemia
[50] = tested on: SW-620 colon
[51] = tested on: T-47D breast
[52] = tested on: TK-10 renal
[53] = tested on: U251 CNS
[54] = tested on: UACC-257 melanoma
[55] = tested on: UACC-62 melanoma
[56] = tested on: UO-31 renal
[57] = tested on: A498 renal
[58] = tested on: BT-549 breast
[59] = tested on: NCI-H522 lung

Structure (SMILES): Nc1ncnc2c1ncn2C1C=CC(COS(N)(=O)=O)C1 (stereo not drawn)
- TGI [1]: > 100 µM
- TGI [2]: > 100 µM
- TGI [3]: > 100 µM
- TGI [4]: 57.6 µM
- TGI [5]: > 100 µM
- TGI [6]: > 100 µM
- TGI [7]: > 100 µM
- TGI [8]: > 100 µM
- TGI [9]: > 100 µM
- TGI [10]: > 100 µM
- TGI [11]: > 100 µM
- TGI [12]: 30.1 µM
- TGI [13]: > 100 µM
- TGI [14]: 87.3 µM
- TGI [15]: > 100 µM
- TGI [16]: > 100 µM
- TGI [17]: > 100 µM
- TGI [18]: > 100 µM
- TGI [19]: > 100 µM
- TGI [20]: 37.6 µM
- TGI [21]: > 100 µM
- TGI [22]: > 100 µM
- TGI [23]: > 100 µM
- TGI [24]: > 100 µM
- TGI [25]: > 100 µM
- TGI [26]: > 100 µM
- TGI [27]: > 100 µM
- TGI [28]: > 100 µM
- TGI [29]: 82.1 µM
- TGI [30]: > 100 µM
- TGI [31]: > 100 µM
- TGI [32]: > 100 µM
- TGI [33]: > 100 µM
- TGI [34]: > 100 µM
- TGI [35]: > 100 µM
- TGI [36]: > 100 µM
- TGI [37]: > 100 µM
- TGI [38]: > 100 µM
- TGI [39]: > 100 µM
- TGI [40]: > 100 µM
- TGI [41]: 7.12 µM
- TGI [42]: > 100 µM
- TGI [43]: > 100 µM
- TGI [44]: > 100 µM
- TGI [45]: > 100 µM
- TGI [46]: > 100 µM
- TGI [47]: > 100 µM
- TGI [48]: > 100 µM
- TGI [49]: > 100 µM
- TGI [50]: > 100 µM
- TGI [51]: > 100 µM
- TGI [52]: > 100 µM
- TGI [53]: > 100 µM
- TGI [54]: > 100 µM
- TGI [55]: > 100 µM
- TGI [56]: > 100 µM

Structure (SMILES): CC(C)(O)CO/N=C1\C(c2c(O)[nH]c3ccccc23)=Nc2ccccc21
- TGI [1]: > 44.4 µM
- TGI [57]: 3.63 µM
- TGI [2]: 11.1 µM
- TGI [3]: 8.01 µM
- TGI [58]: 28.6 µM
- TGI [4]: 2.32 µM
- TGI [5]: 6.54 µM
- TGI [6]: 2.29 µM
- TGI [7]: > 22.2 µM
- TGI [8]: > 36.3 µM
- TGI [9]: 3.27 µM
- TGI [10]: > 100 µM
- TGI [11]: 30.7 µM
- TGI [12]: 3.1 µM
- TGI [13]: 16.4 µM
- TGI [14]: > 91.6 µM
- TGI [15]: > 100 µM
- TGI [16]: > 35 µM
- TGI [17]: 13.9 µM
- TGI [18]: > 100 µM
- TGI [19]: 4.71 µM
- TGI [20]: > 24.3 µM
- TGI [21]: > 43.3 µM
- TGI [22]: > 60.6 µM
- TGI [23]: 7.16 µM
- TGI [24]: > 75.7 µM
- TGI [25]: > 42.3 µM
- TGI [26]: > 45 µM
- TGI [27]: > 43.1 µM
- TGI [29]: 12.7 µM
- TGI [30]: 9.71 µM
- TGI [59]: > 47.8 µM
- TGI [31]: > 64.8 µM
- TGI [32]: 5.95 µM
- TGI [33]: 21.9 µM
- TGI [34]: 9.3 µM
- TGI [35]: > 44.4 µM
- TGI [36]: 12.4 µM
- TGI [37]: > 31.6 µM
- TGI [38]: 2.48 µM
- TGI [39]: > 60 µM
- TGI [40]: 18.4 µM
- TGI [41]: 10.2 µM
- TGI [42]: 3.2 µM
- TGI [43]: > 46.2 µM
- TGI [44]: 2.28 µM
- TGI [45]: 2.05 µM
- TGI [46]: > 80.1 µM
- TGI [47]: > 52.6 µM
- TGI [48]: 9.72 µM
- TGI [49]: > 100 µM
- TGI [50]: > 86.4 µM
- TGI [52]: 8.68 µM
- TGI [53]: > 68.4 µM
- TGI [54]: > 96.4 µM
- TGI [55]: 2.66 µM
- TGI [56]: 5.09 µM
